Broadly, the IC50 is the midpoint of a concentration-inhibition curve.

The target of the first experiment is T1, SHP2 (Homo sapiens, UniProt Q06124).
T1 sequence (Q06124 1-593): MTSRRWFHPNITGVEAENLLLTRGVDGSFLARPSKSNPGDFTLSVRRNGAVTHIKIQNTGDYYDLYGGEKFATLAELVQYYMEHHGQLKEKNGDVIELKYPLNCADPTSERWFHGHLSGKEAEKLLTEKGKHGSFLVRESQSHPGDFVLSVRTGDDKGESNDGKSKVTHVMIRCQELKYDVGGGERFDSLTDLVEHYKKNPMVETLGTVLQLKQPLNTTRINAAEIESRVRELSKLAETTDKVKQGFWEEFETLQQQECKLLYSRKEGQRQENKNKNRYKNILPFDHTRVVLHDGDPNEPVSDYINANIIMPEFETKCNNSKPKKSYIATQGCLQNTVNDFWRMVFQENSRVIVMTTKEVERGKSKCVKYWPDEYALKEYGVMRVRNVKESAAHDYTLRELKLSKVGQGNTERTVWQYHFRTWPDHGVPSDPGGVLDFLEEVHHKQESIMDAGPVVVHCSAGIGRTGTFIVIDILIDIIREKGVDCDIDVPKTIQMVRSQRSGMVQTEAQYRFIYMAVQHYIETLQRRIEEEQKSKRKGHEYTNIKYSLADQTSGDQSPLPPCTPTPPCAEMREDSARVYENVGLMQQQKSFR
Nature of the experiment: SHP2 allosteric inhibitor enzyme activity assay (DiFMUP fluorescence). Format: biochemical. To be noted: class symbols. Put shortly:
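SHP2 activated by 0.5 μM IRS1_pY1172(dPEG8)pY1222 peptide, 0.2 ng enzyme per well, 1 h at room temperature with compound (1 μM top, 3-fold series), then DiFMUP substrate 1 h. Buffer: 60 mM HEPES, 75 mM NaCl, 75 mM KCl, 0.05% BRIJ-35, 1 mM EDTA, 5 mM DTT. Fluorescence ex 340/em 450 nm; IC50 by variable-slope fit.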
Compound `N[C@@H]1c2ccccc2CC12CCN(c1nc3[nH]nc(C4(c5cccc6c5CC(=O)N6)CC4)c3c(=O)[nH]1)CC2` [Example 82, (S)-6-(1-amino-1,3-dihydrospiro[indene-2,4′-piperidin]-1′-yl)-3-(1-(2-oxoindolin-4-yl)cyclopropyl)-1,5-dihydro-4H-pyrazolo[3,4-d]pyrimidin-4-one] displayed an IC50 of no more than 20 nM.

For `N[C@@H]1c2ccccc2CC12CCN(c1nc3[nH]nc(C4(c5cccc6c5COC6)CC4)c3c(=O)[nH]1)CC2` [Example 83, (S)-6-(1-amino-1,3-dihydrospiro[indene-2,4′-piperidin]-1′-yl)-3-(1-(1,3-dihydroisobenzofuran-4-yl)cyclopropyl)-1,5-dihydro-4H-pyrazolo[3,4-d]pyrimidin-4-one], the IC50 was no more than 20 nM.

`N[C@@H]1c2ccccc2CC12CCN(c1nc3[nH]nc(C4(c5nccs5)CC4)c3c(=O)[nH]1)CC2` [Example 84, (S)-6-(1-amino-1,3-dihydrospiro[indene-2,4′-piperidin]-1′-yl)-3-(1-(thiazol-2-yl)cyclopropyl)-1,5-dihydro-4H-pyrazolo[3,4-d]pyrimidin-4-one] returned an IC50 of no more than 20 nM.

Compound `N[C@@H]1c2ccccc2CC12CCN(c1nc3[nH]nc(C4(c5cocn5)CC4)c3c(=O)[nH]1)CC2` [Example 85, (S)-6-(1-amino-1,3-dihydrospiro[indene-2,4′-piperidin]-1′-yl)-3-(1-(oxazol-4-yl)cyclopropyl)-1,5-dihydro-4H-pyrazolo[3,4-d]pyrimidin-4-one] showed an IC50 of no more than 20 nM.

For `N[C@@H]1c2ccccc2CC12CCN(c1nc3[nH]nc(C4(c5ccnc(-c6ccccc6)c5)CC4)c3c(=O)[nH]1)CC2` [Example 86, (S)-6-(1-amino-1,3-dihydrospiro[indene-2,4′-piperidin]-1′-yl)-3-(1-(2-phenylpyridin-4-yl)cyclopropyl)-1,5-dihydro-4H-pyrazolo[3,4-d]pyrimidin-4-one], the IC50 was no more than 20 nM.

As for `N[C@@H]1c2ccccc2CC12CCN(c1nc3[nH]nc(C4(c5ccnc(-c6ccccn6)c5)CC4)c3c(=O)[nH]1)CC2` [Example 87, (S)-3-(1-([2,2′-bipyridin]-4-yl)cyclopropyl)-6-(1-amino-1,3-dihydrospiro[indene-2,4′-piperidin]-1′-yl)-1,5-dihydro-4H-pyrazolo[3,4-d]pyrimidin-4-one], the IC50 is no more than 20 nM.

Compound `Cn1ccc(-c2cc(C3(c4n[nH]c5nc(N6CCC7(CC6)Cc6ccccc6[C@H]7N)[nH]c(=O)c45)CC3)ccn2)n1` [Example 88, (S)-6-(1-amino-1,3-dihydrospiro[indene-2,4′-piperidin]-1′-yl)-3-(1-(2-(1-methyl-1H-pyrazol-3-yl)pyridin-4-yl)cyclopropyl)-1,5-dihydro-4H-pyrazolo[3,4-d]pyrimidin-4-one] had an IC50 of no more than 20 nM.

The compound `Cc1ncccc1C1(c2n[nH]c3nc(N4CCC5(CC4)Cc4ccccc4[C@H]5N)[nH]c(=O)c23)CC1` [Example 89] gave an IC50 of no more than 20 nM.

In the case of `Cn1c(N2CCC3(CC2)Cc2ccccc2[C@H]3N)nc2[nH]nc(C3(c4ccccc4)CCC3)c2c1=O` [Example 91, (S)-6-(1-amino-1,3-dihydrospiro[indene-2,4′-piperidin]-1′-yl)-5-methyl-3-(1-phenylcyclobutyl)-1,5-dihydro-4H-pyrazolo[3,4-d]pyrimidin-4-one], the concentration for half-maximal inhibition (IC50) was no more than 20 nM.

`N[C@@H]1c2ccccc2CC12CCN(c1nc3[nH]nc(C4(c5ccccc5)CCC4)c3c3nncn13)CC2` [Example 92, (S)-1′-(9-(1-phenylcyclobutyl)-7H-pyrazolo[4,3-e][1,2,4]triazolo[4,3-c]pyrimidin-5-yl)-1,3-dihydrospiro[indene-2,4′-piperidin]-1-amine] registered an IC50 of no more than 20 nM.

The compound `N[C@@H]1c2ccccc2CC12CCN(c1nc3[nH]nc(C4(c5ccccn5)CCC4)c3c(=O)[nH]1)CC2` [Example 93, (S)-6-(1-amino-1,3-dihydrospiro[indene-2,4′-piperidin]-1′-yl)-3-(1-(pyridin-2-yl)cyclobutyl)-1,5-dihydro-4H-pyrazolo[3,4-d]pyrimidin-4-one] gave an IC50 of no more than 20 nM.

As for `N[C@@H]1c2ccccc2CC12CCN(c1nc3[nH]nc(C4(c5cccs5)CCC4)c3c(=O)[nH]1)CC2` [Example 94, (S)-6-(1-amino-1,3-dihydrospiro[indene-2,4′-piperidin]-1′-yl)-3-(1-(thiophen-2-yl)cyclobutyl)-1,5-dihydro-4H-pyrazolo[3,4-d]pyrimidin-4-one], the IC50 was no more than 20 nM.

`COc1cccc(C2(c3n[nH]c4nc(N5CCC6(CC5)Cc5ccccc5[C@H]6N)[nH]c(=O)c34)CCC2)c1` [Example 95, (S)-6-(1-amino-1,3-dihydrospiro[indene-2,4′-piperidin]-1′-yl)-3-(1-(3-methoxyphenyl)cyclobutyl)-1,5-dihydro-4H-pyrazolo[3,4-d]pyrimidin-4-one] yielded an IC50 of no more than 20 nM.

With `N[C@@H]1c2ccccc2CC12CCN(c1nc3[nH]nc(C4(c5ccccc5)CCCC4)c3c(=O)[nH]1)CC2` [Example 97, (S)-6-(1-amino-1,3-dihydrospiro[indene-2,4′-piperidin]-1′-yl)-3-(1-phenylcyclopentyl)-1,5-dihydro-4H-pyrazolo[3,4-d]pyrimidin-4-one], the IC50 was in the range of 20 to 60 nM.

`N[C@@H]1c2ccccc2CC12CCN(c1nc3[nH]nc(C4(c5ccccc5)CCOC4)c3c(=O)[nH]1)CC2` (stereo partly drawn) [Example 98, 6-((S)-1-amino-1,3-dihydrospiro[indene-2,4′-piperidin]-1′-yl)-3-(3-phenyltetrahydrofuran-3-yl)-1,5-dihydro-4H-pyrazolo[3,4-d]pyrimidin-4-one]: the IC50 fell in the range of 20 to 60 nM.

The compound `N[C@@H]1c2ccccc2CC12CCN(c1nc3[nH]nc(C4(c5ccccc5)CCCCC4)c3c(=O)[nH]1)CC2` [Example 99, (S)-6-(1-amino-1,3-dihydrospiro[indene-2,4′-piperidin]-1′-yl)-3-(1-phenylcyclohexyl)-1,5-dihydro-4H-pyrazolo[3,4-d]pyrimidin-4-one] registered an IC50 of 20 to 60 nM.

`N[C@@H]1c2ccccc2CC12CCN(c1nc3[nH]nc(C4(c5ccccc5)CCOCC4)c3c(=O)[nH]1)CC2` [Example 100, (S)-6-(1-amino-1,3-dihydrospiro[indene-2,4′-piperidin]-1′-yl)-3-(4-phenyltetrahydro-2H-pyran-4-yl)-1,5-dihydro-4H-pyrazolo[3,4-d]pyrimidin-4-one]: the IC50 was in the range of 20 to 60 nM.

In the case of `COc1ccccc1C1(c2n[nH]c3nc(N4CCC5(CC4)Cc4ccccc4[C@H]5N)[nH]c(=O)c23)CC12CCCC2` (stereo partly drawn) [Example 101, 6-((S)-1-amino-1,3-dihydrospiro[indene-2,4′-piperidin]-1′-yl)-3-(1-(2-methoxyphenyl)spiro[2.4]heptan-1-yl)-1,5-dihydro-4H-pyrazolo[3,4-d]pyrimidin-4-one], the IC50 was in the range of 20 to 60 nM.

Take `N[C@@H]1c2ccccc2CC12CCN(c1nc3[nH]nc([C@H]4C[C@H]4c4ccccc4)c3c(=O)[nH]1)CC2` [Example 105, 6-((S)-1-amino-1,3-dihydrospiro[indene-2,4′-piperidin]-1′-yl)-3-((1S,2R)-2-phenylcyclopropyl)-1,5-dihydro-4H-pyrazolo[3,4-d]pyrimidin-4-one]: the IC50 was no more than 20 nM.

`N[C@@H]1c2ccccc2CC12CCN(c1cnc3c([C@H]4C[C@H]4c4ccccc4)n[nH]c3n1)CC2` [Example 106, (S)-1′-(3-((1S,2R)-2-phenylcyclopropyl)-1H-pyrazolo[3,4-b]pyrazin-6-yl)-1,3-dihydrospiro[indene-2,4′-piperidin]-1-amine]: the IC50 is no more than 20 nM.

Take `N[C@@H]1c2ccccc2CC12CCN(c1nc3[nH]nc([C@H]4C[C@H]4c4ccccc4)c3c3nncn13)CC2` [Example 107, (S)-1′-(9-((1S,2R)-2-phenylcyclopropyl)-7H-pyrazolo[4,3-e][1,2,4]triazolo[4,3-c]pyrimidin-5-yl)-1,3-dihydrospiro[indene-2,4′-piperidin]-1-amine]: the IC50 was 20 to 60 nM.

`CC1(C)CC(c2n[nH]c3nc(N4CCC5(CC4)Cc4ccccc4[C@H]5N)[nH]c(=O)c23)c2cccc(F)c21` (stereo partly drawn) [Example 109, 6-((S)-1-amino-1,3-dihydrospiro[indene-2,4′-piperidin]-1′-yl)-3-(4-fluoro-3,3-dimethyl-2,3-dihydro-1H-inden-1-yl)-1,5-dihydro-4H-pyrazolo[3,4-d]pyrimidin-4-one]: the IC50 was no more than 20 nM.

In turn, `N[C@@H]1c2ccccc2CC12CCN(c1nc3[nH]nc(C4CCCCc5ccccc54)c3c(=O)[nH]1)CC2` (stereo partly drawn) [Example 110, 6-((S)-1-amino-1,3-dihydrospiro[indene-2,4′-piperidin]-1′-yl)-3-(6,7,8,9-tetrahydro-5H-benzo[7]annulen-5-yl)-1,5-dihydro-4H-pyrazolo[3,4-d]pyrimidin-4-one] displayed an IC50 of no more than 20 nM.

Still in this experiment, the particulars now being: numeric values.
In turn, `N[C@@H]1c2ccccc2CC12CCN(c1nc3[nH]nc(C4CCCc5ncccc54)c3c(=O)[nH]1)CC2` (stereo partly drawn) [Example 108, 6-((S)-1-amino-1,3-dihydrospiro[indene-2,4′-piperidin]-1′-yl)-3-(5,6,7,8-tetrahydroquinolin-5-yl)-1,5-dihydro-4H-pyrazolo[3,4-d]pyrimidin-4-one] gave an IC50 of 1.9 nM.
